Numbers after ± are expanded uncertainties.
Assay: xn = mol fraction of the nth substance listed
Conditions: 100 kPa, Liquid; for viscosity: Falling or rolling sphere viscometry; for mass density: Vibrating tube method

OCC1CC1 [cyclopropylmethanol] + CCCCC1CCCCC1
Conditions	mass density [kg/m3]	viscosity [mPa·s]
293.15 K, x1 = 0.1039	803.82 ± 1	1.319 ± 0.028
293.15 K, x1 = 0.2031	809.39 ± 1	1.383 ± 0.029
293.15 K, x1 = 0.3022	815.9 ± 1	1.475 ± 0.031
293.15 K, x1 = 0.3997	823.34 ± 1	1.602 ± 0.034
293.15 K, x1 = 0.4993	832.12 ± 1	1.778 ± 0.038
293.15 K, x1 = 0.5994	842.55 ± 1	2.006 ± 0.043
293.15 K, x1 = 0.7	855.1 ± 1	2.299 ± 0.049
293.15 K, x1 = 0.797	869.68 ± 1	2.67 ± 0.057
293.15 K, x1 = 0.9004	889.05 ± 1	3.23 ± 0.069
293.15 K, x1 = 1	912.99 ± 1	4.029 ± 0.086
298.15 K, x1 = 0.1039	800.02 ± 1	1.212 ± 0.026
298.15 K, x1 = 0.2031	805.52 ± 1	1.265 ± 0.027
298.15 K, x1 = 0.3022	812 ± 1	1.343 ± 0.029
298.15 K, x1 = 0.3997	819.39 ± 1	1.451 ± 0.031
298.15 K, x1 = 0.4993	828.15 ± 1	1.601 ± 0.034
298.15 K, x1 = 0.5994	838.56 ± 1	1.79 ± 0.038
298.15 K, x1 = 0.7	851.09 ± 1	2.038 ± 0.044
298.15 K, x1 = 0.797	865.66 ± 1	2.355 ± 0.05
298.15 K, x1 = 0.9004	885.02 ± 1	2.821 ± 0.06
298.15 K, x1 = 1	908.94 ± 1	3.485 ± 0.075
303.15 K, x1 = 0.1039	796.16 ± 1	1.117 ± 0.024
303.15 K, x1 = 0.2031	801.61 ± 1	1.162 ± 0.025
303.15 K, x1 = 0.3022	808.04 ± 1	1.228 ± 0.026
303.15 K, x1 = 0.3997	815.4 ± 1	1.319 ± 0.028
303.15 K, x1 = 0.4993	824.14 ± 1	1.448 ± 0.031
303.15 K, x1 = 0.5994	834.52 ± 1	1.607 ± 0.034
303.15 K, x1 = 0.7	847.04 ± 1	1.817 ± 0.039
303.15 K, x1 = 0.797	861.6 ± 1	2.084 ± 0.045
303.15 K, x1 = 0.9004	880.95 ± 1	2.48 ± 0.053
303.15 K, x1 = 1	904.85 ± 1	3.037 ± 0.065
308.15 K, x1 = 0.1039	792.28 ± 1	1.034 ± 0.022
308.15 K, x1 = 0.2031	797.68 ± 1	1.072 ± 0.023
308.15 K, x1 = 0.3022	804.06 ± 1	1.128 ± 0.024
308.15 K, x1 = 0.3997	811.39 ± 1	1.205 ± 0.026
308.15 K, x1 = 0.4993	820.09 ± 1	1.315 ± 0.028
308.15 K, x1 = 0.5994	830.45 ± 1	1.45 ± 0.031
308.15 K, x1 = 0.7	842.95 ± 1	1.628 ± 0.035
308.15 K, x1 = 0.797	857.5 ± 1	1.855 ± 0.04
308.15 K, x1 = 0.9004	876.84 ± 1	2.192 ± 0.047
308.15 K, x1 = 1	900.74 ± 1	2.661 ± 0.057
313.15 K, x1 = 0.1039	788.38 ± 1	0.96 ± 0.02
313.15 K, x1 = 0.2031	793.72 ± 1	0.984 ± 0.021
313.15 K, x1 = 0.3022	800.06 ± 1	1.04 ± 0.022
313.15 K, x1 = 0.3997	807.34 ± 1	1.106 ± 0.024
313.15 K, x1 = 0.4993	816.02 ± 1	1.198 ± 0.026
313.15 K, x1 = 0.5994	826.34 ± 1	1.314 ± 0.028
313.15 K, x1 = 0.7	838.82 ± 1	1.466 ± 0.031
313.15 K, x1 = 0.797	853.35 ± 1	1.659 ± 0.036
313.15 K, x1 = 0.9004	872.69 ± 1	1.947 ± 0.042
313.15 K, x1 = 1	896.58 ± 1	2.344 ± 0.05
318.15 K, x1 = 0.1039	784.47 ± 1	0.895 ± 0.019
318.15 K, x1 = 0.2031	789.74 ± 1	0.919 ± 0.02
318.15 K, x1 = 0.3022	796.03 ± 1	0.963 ± 0.021
318.15 K, x1 = 0.3997	803.27 ± 1	1.019 ± 0.022
318.15 K, x1 = 0.4993	811.9 ± 1	1.098 ± 0.023
318.15 K, x1 = 0.5994	822.19 ± 1	1.197 ± 0.026
318.15 K, x1 = 0.7	834.65 ± 1	1.327 ± 0.028
318.15 K, x1 = 0.797	849.17 ± 1	1.491 ± 0.032
318.15 K, x1 = 0.9004	868.5 ± 1	1.735 ± 0.037
318.15 K, x1 = 1	892.38 ± 1	2.074 ± 0.044
323.15 K, x1 = 0.1039	780.53 ± 1	0.837 ± 0.018
323.15 K, x1 = 0.2031	785.74 ± 1	0.861 ± 0.018
323.15 K, x1 = 0.3022	791.97 ± 1	0.894 ± 0.019
323.15 K, x1 = 0.3997	799.16 ± 1	0.941 ± 0.02
323.15 K, x1 = 0.4993	807.75 ± 1	1.01 ± 0.022
323.15 K, x1 = 0.5994	818.01 ± 1	1.094 ± 0.023
323.15 K, x1 = 0.7	830.44 ± 1	1.205 ± 0.026
323.15 K, x1 = 0.797	844.94 ± 1	1.345 ± 0.029
323.15 K, x1 = 0.9004	864.26 ± 1	1.555 ± 0.033
323.15 K, x1 = 1	888.13 ± 1	1.843 ± 0.04
328.15 K, x1 = 0.1039	776.57 ± 1	0.784 ± 0.017
328.15 K, x1 = 0.2031	781.71 ± 1	0.808 ± 0.017
328.15 K, x1 = 0.3022	787.87 ± 1	0.832 ± 0.018
328.15 K, x1 = 0.3997	795.01 ± 1	0.873 ± 0.019
328.15 K, x1 = 0.4993	803.56 ± 1	0.931 ± 0.02
328.15 K, x1 = 0.5994	813.78 ± 1	1.003 ± 0.021
328.15 K, x1 = 0.7	826.18 ± 1	1.098 ± 0.023
328.15 K, x1 = 0.797	840.66 ± 1	1.22 ± 0.026
328.15 K, x1 = 0.9004	859.97 ± 1	1.399 ± 0.03
328.15 K, x1 = 1	883.84 ± 1	1.646 ± 0.035
333.15 K, x1 = 0.1039	772.6 ± 1	0.736 ± 0.016
333.15 K, x1 = 0.2031	777.65 ± 1	0.758 ± 0.016
333.15 K, x1 = 0.3022	783.75 ± 1	0.777 ± 0.017
333.15 K, x1 = 0.3997	790.83 ± 1	0.812 ± 0.017
333.15 K, x1 = 0.4993	799.33 ± 1	0.862 ± 0.018
333.15 K, x1 = 0.5994	809.5 ± 1	0.923 ± 0.02
333.15 K, x1 = 0.7	821.87 ± 1	1.005 ± 0.022
333.15 K, x1 = 0.797	836.33 ± 1	1.109 ± 0.024
333.15 K, x1 = 0.9004	855.62 ± 1	1.264 ± 0.027
333.15 K, x1 = 1	879.49 ± 1	1.476 ± 0.032
338.15 K, x1 = 0.1039	768.6 ± 1	0.697 ± 0.015
338.15 K, x1 = 0.2031	773.56 ± 1	0.718 ± 0.015
338.15 K, x1 = 0.3022	779.59 ± 1	0.733 ± 0.016
338.15 K, x1 = 0.3997	786.61 ± 1	0.767 ± 0.016
338.15 K, x1 = 0.4993	795.05 ± 1	0.801 ± 0.017
338.15 K, x1 = 0.5994	805.18 ± 1	0.853 ± 0.018
338.15 K, x1 = 0.7	817.51 ± 1	0.923 ± 0.02
338.15 K, x1 = 0.797	831.94 ± 1	1.012 ± 0.022
338.15 K, x1 = 0.9004	851.21 ± 1	1.146 ± 0.025
338.15 K, x1 = 1	875.07 ± 1	1.328 ± 0.028
343.15 K, x1 = 0.1039	764.58 ± 1	0.656 ± 0.014
343.15 K, x1 = 0.2031	769.4 ± 1	0.668 ± 0.014
343.15 K, x1 = 0.3022	775.39 ± 1	0.684 ± 0.015
343.15 K, x1 = 0.3997	782.35 ± 1	0.709 ± 0.015
343.15 K, x1 = 0.4993	790.73 ± 1	0.746 ± 0.016
343.15 K, x1 = 0.5994	800.8 ± 1	0.79 ± 0.017
343.15 K, x1 = 0.7	813.09 ± 1	0.85 ± 0.018
343.15 K, x1 = 0.797	827.49 ± 1	0.928 ± 0.02
343.15 K, x1 = 0.9004	846.74 ± 1	1.043 ± 0.022
343.15 K, x1 = 1	870.62 ± 1	1.201 ± 0.026

— the NIST ThermoML archive (doi:10.1021/acs.jced.7b00201)
